From ChEMBL document CHEMBL1201862, “PubChem BioAssay data set” (2004)
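96-well plates; 48 h exposure; 5 concentrations. Endpoints by linear interpolation between flanking doses. Not reached: highest tested concentration assigned. GI50 marks 50% less growth.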 Calls of active or inactive are those of the source. Rule as the data show it: active = GI50 up to about 1.1 µM and inactive = higher.

Experiments:
Experiment in all cases: NCI-60 cell line screen, 48 h
786-0 = system: 786-0
ACHN = system: ACHN
CAKI-1 = system: CAKI-1
DU-145 = system: DU-145
EKVX = system: EKVX
HCT-15 = system: HCT-15
HL-60 = system: HL-60
Hs-578T = system: Hs-578T
K562 = system: K562
KM12 = system: KM12
MDA-MB-435 = system: MDA-MB-435
MDA-N = system: MDA-N
MOLT-4 = system: MOLT-4
NCI/ADR-RES = system: NCI/ADR-RES
OVCAR-8 = system: OVCAR-8
SK-MEL-28 = system: SK-MEL-28
SK-MEL-2 = system: SK-MEL-2
TK-10 = system: TK-10
UACC-257 = system: UACC-257
UO-31 = system: UO-31

Row | Compound | GI50 (786-0) | GI50 (ACHN) | GI50 (CAKI-1) | GI50 (DU-145) | GI50 (EKVX) | GI50 (HCT-15) [µM] | GI50 (HL-60) | GI50 (Hs-578T) | GI50 (K562) | GI50 (KM12) | GI50 (MDA-MB-435) | GI50 (MDA-N) | GI50 (MOLT-4) | GI50 (NCI/ADR-RES) | GI50 (OVCAR-8) | GI50 (SK-MEL-28) | GI50 (SK-MEL-2) | GI50 (TK-10) | GI50 (UACC-257) | GI50 (UO-31)
1 | CC1(C)C(N2CCOCC2)CS1(=O)=O (stereo not given) | > 10 µM (inactive) | > 10 µM (inactive) | > 10 µM (inactive) | > 10 µM (inactive) | > 10 µM (inactive) | > 10 | > 10 µM (inactive) | > 10 µM (inactive) | > 10 µM (inactive) | > 10 µM (inactive) | > 10 µM (inactive) | > 10 µM (inactive) | > 10 µM (inactive) | > 10 µM (inactive) | > 10 µM (inactive) | > 10 µM (inactive) | > 10 µM (inactive) | > 10 µM (inactive) | > 10 µM (inactive) | > 10 µM (inactive)
2 | Cn1c(-c2cccs2)cc(-c2cccs2)c1-c1ccco1 | 69.2 µM (inactive) | > 93.3 µM (inactive) | 11.4 µM (inactive) | > 100 µM (inactive) | 16.6 µM (inactive) | 14.4 | 23.9 µM (inactive) | 26.5 µM (inactive) | 10.2 µM (inactive) | 6.07 µM (inactive) | 7.16 µM (inactive) | 39.5 µM (inactive) | 1.8 µM (inactive) | 40.7 µM (inactive) | > 100 µM (inactive) | 49.1 µM (inactive) | 30.3 µM (inactive) | 41.7 µM (inactive) | 39.9 µM (inactive) | 31.5 µM (inactive)
3 | O=C1CCCc2cc3c(cc21)CC1(C3)Cc2cc3c(cc2C1)C(=O)CCC3 | 2.58 µM (inactive) | 2.86 µM (inactive) | 1.91 µM (inactive) | 2.18 µM (inactive) | 5.48 µM (inactive) | 0.662 | 0.368 µM (active) | 2.64 µM (inactive) | 0.396 µM (active) | 0.493 µM (active) | 0.231 µM (active) | 0.214 µM (active) | 1 µM (active) | 0.769 µM (active) | 3.04 µM (inactive) | 3.23 µM (inactive) | 1.57 µM (inactive) | 1.81 µM (inactive) | 2.28 µM (inactive) | 5.55 µM (inactive)
